Assay results from ChEMBL document CHEMBL1201862, “PubChem BioAssay data set” (2004).
One block for each compound: values may come before it. The source made the active and inactive calls.

Assays:
INS1 = test: beta cell apoptosis inhibitors, cytokine rescue, dose response, luminescence, retest (AID 449756); format: functional, cell-based; settings: Rattus norvegicus;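 note: cell death triggered by IL-1 beta plus TNF-alpha plus IFN-gamma mixture; protective hits raise ATP signal compared with cytokine alone wells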
[1] = Luminescence Cell-Based Dose Retest to Confirm Inhibitors of Cancer Stem Cells. [Related pubchem assays (depositor defined):AID2717, AID2721]; format: functional; settings: Homo sapiens
[2] = molecular target: T1, Microphthalmia-associated transcription factor (Homo sapiens, UniProt O75030); test: TRPM1 promoter luciferase signal decrease, dose response, MITF inhibitor project, cell-based, SK-MEL-5, cherry-picked, set 3 (AID 493073); format: functional
T1 sequence (O75030 whole entry): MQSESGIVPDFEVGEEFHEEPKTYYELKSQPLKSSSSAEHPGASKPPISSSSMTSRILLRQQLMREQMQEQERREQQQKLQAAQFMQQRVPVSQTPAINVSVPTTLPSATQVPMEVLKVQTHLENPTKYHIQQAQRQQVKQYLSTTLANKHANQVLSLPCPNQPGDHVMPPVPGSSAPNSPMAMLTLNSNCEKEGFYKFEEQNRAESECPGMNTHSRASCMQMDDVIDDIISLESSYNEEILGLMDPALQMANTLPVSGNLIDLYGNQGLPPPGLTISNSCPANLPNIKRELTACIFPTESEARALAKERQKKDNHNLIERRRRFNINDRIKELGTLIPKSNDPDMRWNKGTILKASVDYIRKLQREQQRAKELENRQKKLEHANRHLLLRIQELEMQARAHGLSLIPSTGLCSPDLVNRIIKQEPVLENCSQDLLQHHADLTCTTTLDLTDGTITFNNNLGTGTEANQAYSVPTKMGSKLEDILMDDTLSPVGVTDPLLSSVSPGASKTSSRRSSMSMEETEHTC

[3] = molecular target: T2, Ubiquitin-conjugating enzyme E2 N (Homo sapiens, UniProt P61088); format: functional;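 note: Dose-response confirmation in a TR-FRET assay detecting UBC13-driven polyubiquitin chain formation, inhibition measured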
T2 sequence (P61088 whole entry): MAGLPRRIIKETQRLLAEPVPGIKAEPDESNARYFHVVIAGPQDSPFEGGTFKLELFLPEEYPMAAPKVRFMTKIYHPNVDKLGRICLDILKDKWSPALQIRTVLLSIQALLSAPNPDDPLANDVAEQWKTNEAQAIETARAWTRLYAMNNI

A-375 = test: A375 melanoma cell viability reduction, dose response, counter-screen for MITF modulator project, cherry-pick samples, set 2 (AID 540335); format: functional, cell-based; settings: Homo sapiens
Cytochrome P450 2C9 = Cytochrome P450 2C9 (Homo sapiens, UniProt P11712)
Sequence of Cytochrome P450 2C9 (P11712 whole entry): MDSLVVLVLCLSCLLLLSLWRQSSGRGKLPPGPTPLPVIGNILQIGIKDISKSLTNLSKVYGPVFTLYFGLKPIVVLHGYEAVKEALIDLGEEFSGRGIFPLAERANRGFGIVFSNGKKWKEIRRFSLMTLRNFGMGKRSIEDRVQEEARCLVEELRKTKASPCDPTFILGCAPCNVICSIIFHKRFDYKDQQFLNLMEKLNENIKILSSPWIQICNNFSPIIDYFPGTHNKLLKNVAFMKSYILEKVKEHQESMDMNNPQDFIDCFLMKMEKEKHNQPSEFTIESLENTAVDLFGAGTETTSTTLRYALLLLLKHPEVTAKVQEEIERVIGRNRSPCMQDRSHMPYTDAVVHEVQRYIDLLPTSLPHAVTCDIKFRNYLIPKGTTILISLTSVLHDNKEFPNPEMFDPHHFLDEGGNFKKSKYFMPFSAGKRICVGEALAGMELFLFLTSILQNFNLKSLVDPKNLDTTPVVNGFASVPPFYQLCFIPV

Cytochrome P450 3A4 = Cytochrome P450 3A4 (Homo sapiens, UniProt P08684);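 note: CYP3A4 tested as one member of a cytochrome P450 panel screen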
Sequence of Cytochrome P450 3A4 (P08684 whole entry): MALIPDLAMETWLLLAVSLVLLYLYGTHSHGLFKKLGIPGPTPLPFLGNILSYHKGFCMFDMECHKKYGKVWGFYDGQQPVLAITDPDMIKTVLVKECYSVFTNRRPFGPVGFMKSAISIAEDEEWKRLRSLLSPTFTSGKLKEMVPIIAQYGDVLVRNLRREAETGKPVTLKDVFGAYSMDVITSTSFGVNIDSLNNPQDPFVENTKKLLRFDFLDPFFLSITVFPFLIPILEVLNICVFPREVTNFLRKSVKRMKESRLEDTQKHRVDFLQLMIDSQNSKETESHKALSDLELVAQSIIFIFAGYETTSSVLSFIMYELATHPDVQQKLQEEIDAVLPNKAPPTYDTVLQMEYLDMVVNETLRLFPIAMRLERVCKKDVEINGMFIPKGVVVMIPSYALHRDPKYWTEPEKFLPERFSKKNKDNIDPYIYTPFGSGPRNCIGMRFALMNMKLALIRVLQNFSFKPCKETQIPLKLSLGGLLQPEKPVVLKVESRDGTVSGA

Cytochrome P450 2C19 = Cytochrome P450 2C19 (Homo sapiens, UniProt P33261); test: Cytochrome panel assay with activity outcomes. Panel member name: p450-cyp2c19 Compounds with AC50 equal or less than 10 uM are considered active; format: functional; settings: read-out: AC50
Sequence of Cytochrome P450 2C19 (P33261 whole entry): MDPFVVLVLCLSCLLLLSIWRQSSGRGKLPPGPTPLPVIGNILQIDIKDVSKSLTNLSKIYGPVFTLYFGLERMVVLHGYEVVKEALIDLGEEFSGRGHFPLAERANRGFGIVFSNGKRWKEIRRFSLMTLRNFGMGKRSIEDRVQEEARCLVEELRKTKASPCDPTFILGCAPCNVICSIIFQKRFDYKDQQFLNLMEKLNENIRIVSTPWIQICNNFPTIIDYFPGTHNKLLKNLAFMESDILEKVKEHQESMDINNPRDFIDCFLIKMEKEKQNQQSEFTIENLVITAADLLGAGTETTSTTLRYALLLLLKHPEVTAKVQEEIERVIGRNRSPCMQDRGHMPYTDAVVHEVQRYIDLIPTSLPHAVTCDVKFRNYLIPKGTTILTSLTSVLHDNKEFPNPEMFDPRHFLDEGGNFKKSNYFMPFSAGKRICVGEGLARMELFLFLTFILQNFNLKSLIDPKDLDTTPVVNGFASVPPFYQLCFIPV

[4] = molecular target: T3, Corticotropin-releasing factor receptor 2/Corticotropin-releasing factor-binding protein (Homo sapiens, UniProt P24387+Q13324); test: Dose Response confirmation of uHTS hits for small molecule antagonists of the CRF-binding protein and CRF-R2 receptor complex.; format: functional; settings: read-out: IC50_Mean
T3 sequence (Q13324 whole entry): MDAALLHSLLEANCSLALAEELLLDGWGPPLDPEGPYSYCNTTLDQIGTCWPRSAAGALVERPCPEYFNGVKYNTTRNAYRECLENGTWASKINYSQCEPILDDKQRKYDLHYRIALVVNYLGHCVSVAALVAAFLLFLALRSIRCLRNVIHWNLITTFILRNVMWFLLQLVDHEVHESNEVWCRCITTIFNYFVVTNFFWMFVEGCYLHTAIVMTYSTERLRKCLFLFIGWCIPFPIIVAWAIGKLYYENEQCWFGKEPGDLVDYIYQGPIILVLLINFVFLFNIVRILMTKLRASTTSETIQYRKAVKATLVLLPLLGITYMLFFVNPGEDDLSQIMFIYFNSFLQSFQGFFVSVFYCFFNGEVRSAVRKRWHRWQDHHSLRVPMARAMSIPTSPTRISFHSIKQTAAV
T3 sequence (P24387 whole entry): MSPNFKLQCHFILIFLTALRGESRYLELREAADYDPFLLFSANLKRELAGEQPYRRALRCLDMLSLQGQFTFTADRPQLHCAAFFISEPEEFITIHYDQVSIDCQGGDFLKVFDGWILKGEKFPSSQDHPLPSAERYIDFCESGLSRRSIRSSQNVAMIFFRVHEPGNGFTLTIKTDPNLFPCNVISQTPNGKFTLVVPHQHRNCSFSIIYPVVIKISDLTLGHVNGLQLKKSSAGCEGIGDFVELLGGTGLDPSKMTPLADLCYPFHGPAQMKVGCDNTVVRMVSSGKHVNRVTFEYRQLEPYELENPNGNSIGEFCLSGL

[5] = molecular target: Peroxisome proliferator-activated receptor gamma/Nuclear receptor coactivator 1 (Homo sapiens, UniProt P37231); test: (§1) TR-FRET dose response biochemical High Throughput Screening assay for agonists of the steroid receptor coactivator 1 (SRC-1) recruitment by the peroxisome proliferator-activated receptor gamma (PPAR gamma): non-selective agonists. [Related pubchem assays (depositor defined):AID1300, AID1808, AID504735, AID631]; format: protein assay
[6] = molecular target: T4, RNA-binding protein pos-1 (Caenorhabditis elegans, UniProt G5EF15); test: inhibitors of POS-1/mex-3 RNA binding, dose response, biochemical, fluorescence polarization (AID 1964);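 note: purified POS-1 fused to maltose binding protein made in E. coli; potency of compounds blocking POS-1 binding to fluorescent RNA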
T4 sequence (G5EF15 whole entry): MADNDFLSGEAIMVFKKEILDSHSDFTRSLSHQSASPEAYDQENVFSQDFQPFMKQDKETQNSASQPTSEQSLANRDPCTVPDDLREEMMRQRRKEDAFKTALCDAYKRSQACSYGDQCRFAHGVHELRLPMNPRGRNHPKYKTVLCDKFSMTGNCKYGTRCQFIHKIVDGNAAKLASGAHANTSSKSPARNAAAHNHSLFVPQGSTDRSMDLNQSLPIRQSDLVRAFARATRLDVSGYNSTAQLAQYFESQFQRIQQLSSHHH

[7] = molecular target: Peroxisome proliferator-activated receptor gamma/Nuclear receptor coactivator 3 (Homo sapiens, UniProt P37231); test: as §1, with “3 (SRC-3)” for “1 (SRC-1)”, “assays: 1301 (Confirmation screen.), 1048 (Primary screen.)]” for “assays (depositor defined):AID1300, AID1808, AID504735, AID631]”; format: functional
[8] = molecular target: T3, Corticotropin-releasing factor receptor 2/Corticotropin-releasing factor-binding protein; test: activators of CRF receptor 2 with binding protein – uHTS hits, confirmation (AID 602473); format: functional; settings: read-out: EC50_Mean
[9] = molecular target: Peroxisome proliferator-activated receptor gamma/Nuclear receptor coactivator 2 (Homo sapiens, UniProt P37231); test: TR-FRET dose response biochemical High Throughput Screening assay for agonists of the steroid receptor coactivator 2 (SRC-2) recruitment by the peroxisome proliferator-activated receptor gamma (PPAR gamma): non-selective agonists. [Related pubchem assays: 1297, 1032 ]; format: functional
Sequence of Peroxisome proliferator-activated receptor gamma/Nuclear receptor coactivator 2 (P37231 whole entry): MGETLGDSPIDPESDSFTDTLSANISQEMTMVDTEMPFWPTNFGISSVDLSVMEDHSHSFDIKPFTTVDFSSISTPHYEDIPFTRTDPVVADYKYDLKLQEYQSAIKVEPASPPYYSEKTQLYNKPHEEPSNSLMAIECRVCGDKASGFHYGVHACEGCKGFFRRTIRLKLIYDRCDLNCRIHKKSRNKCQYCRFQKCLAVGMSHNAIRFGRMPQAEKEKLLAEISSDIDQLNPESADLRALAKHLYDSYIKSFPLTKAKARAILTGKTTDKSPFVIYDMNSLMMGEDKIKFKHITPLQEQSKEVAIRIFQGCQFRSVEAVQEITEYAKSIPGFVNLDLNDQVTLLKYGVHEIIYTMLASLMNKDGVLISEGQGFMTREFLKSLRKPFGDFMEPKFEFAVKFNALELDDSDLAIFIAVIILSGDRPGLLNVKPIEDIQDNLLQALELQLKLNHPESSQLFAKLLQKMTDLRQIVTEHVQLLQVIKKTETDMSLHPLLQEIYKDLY
Sequence of Peroxisome proliferator-activated receptor gamma/Nuclear receptor coactivator 2 (Q15596 whole entry, further chain): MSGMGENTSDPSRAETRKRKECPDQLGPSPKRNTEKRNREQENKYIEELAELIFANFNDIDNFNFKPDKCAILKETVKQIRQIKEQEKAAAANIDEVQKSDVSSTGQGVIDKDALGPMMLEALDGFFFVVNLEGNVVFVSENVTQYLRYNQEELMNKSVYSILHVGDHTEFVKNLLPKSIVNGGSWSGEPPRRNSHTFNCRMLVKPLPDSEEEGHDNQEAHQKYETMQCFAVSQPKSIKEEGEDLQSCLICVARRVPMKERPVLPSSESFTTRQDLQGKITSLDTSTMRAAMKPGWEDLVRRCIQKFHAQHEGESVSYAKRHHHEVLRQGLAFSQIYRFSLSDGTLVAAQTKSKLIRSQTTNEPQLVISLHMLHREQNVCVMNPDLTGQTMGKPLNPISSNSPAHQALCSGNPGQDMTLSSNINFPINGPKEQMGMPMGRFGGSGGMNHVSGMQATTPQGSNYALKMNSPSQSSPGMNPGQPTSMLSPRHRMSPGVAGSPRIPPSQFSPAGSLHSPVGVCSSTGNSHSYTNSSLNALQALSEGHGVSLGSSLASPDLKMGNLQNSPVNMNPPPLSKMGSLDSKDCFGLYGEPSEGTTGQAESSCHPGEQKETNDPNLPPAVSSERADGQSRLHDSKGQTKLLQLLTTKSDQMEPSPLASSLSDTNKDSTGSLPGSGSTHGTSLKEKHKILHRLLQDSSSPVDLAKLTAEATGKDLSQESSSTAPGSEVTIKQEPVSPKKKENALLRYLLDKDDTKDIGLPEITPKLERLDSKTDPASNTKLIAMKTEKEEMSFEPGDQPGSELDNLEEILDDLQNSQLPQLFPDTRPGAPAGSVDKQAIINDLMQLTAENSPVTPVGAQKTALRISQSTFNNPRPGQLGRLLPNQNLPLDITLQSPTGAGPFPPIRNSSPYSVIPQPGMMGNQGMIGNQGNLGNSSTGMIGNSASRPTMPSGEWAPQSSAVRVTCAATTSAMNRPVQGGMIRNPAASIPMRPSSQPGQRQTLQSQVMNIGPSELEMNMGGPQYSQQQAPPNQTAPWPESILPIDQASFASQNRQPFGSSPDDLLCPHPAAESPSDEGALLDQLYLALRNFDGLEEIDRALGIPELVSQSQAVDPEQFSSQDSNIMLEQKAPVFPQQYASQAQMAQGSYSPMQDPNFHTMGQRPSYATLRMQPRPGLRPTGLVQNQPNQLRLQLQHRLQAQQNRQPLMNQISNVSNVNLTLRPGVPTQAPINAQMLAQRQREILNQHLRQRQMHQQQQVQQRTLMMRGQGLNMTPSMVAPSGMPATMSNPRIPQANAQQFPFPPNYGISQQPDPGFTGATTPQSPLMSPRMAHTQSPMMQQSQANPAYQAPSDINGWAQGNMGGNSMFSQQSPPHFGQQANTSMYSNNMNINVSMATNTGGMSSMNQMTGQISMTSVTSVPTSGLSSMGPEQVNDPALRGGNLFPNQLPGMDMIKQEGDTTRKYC

[10] = molecular target: T5, Zinc finger protein mex-5 (Caenorhabditis elegans, UniProt Q9XUB2); test: MEX-5/TCR-2 RNA interaction inhibitors, dose response, biochemical, C. elegans, fluorescence polarization (AID 1960)
T5 sequence (Q9XUB2 whole entry): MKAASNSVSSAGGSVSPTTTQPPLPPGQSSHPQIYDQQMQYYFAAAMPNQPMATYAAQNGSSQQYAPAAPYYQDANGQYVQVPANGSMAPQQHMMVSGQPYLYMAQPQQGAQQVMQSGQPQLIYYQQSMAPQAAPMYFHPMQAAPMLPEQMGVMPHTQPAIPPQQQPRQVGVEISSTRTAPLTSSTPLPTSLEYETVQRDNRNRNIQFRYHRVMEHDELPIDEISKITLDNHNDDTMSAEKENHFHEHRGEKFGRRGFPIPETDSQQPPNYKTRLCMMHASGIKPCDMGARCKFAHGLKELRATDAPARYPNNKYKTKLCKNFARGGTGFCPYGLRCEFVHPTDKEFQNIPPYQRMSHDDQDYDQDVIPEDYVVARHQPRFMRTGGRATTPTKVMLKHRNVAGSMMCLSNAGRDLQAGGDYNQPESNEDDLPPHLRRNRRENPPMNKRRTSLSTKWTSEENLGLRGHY

[11] = molecular target: T6, Nuclear receptor subfamily 0 group B member 1 (Homo sapiens, UniProt P51843); format: functional, cell-based;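 note: HEK293T cells transfected with SF-1 and DAX-1 plus StAR promoter luciferase reporter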
T6 sequence (P51843 whole entry): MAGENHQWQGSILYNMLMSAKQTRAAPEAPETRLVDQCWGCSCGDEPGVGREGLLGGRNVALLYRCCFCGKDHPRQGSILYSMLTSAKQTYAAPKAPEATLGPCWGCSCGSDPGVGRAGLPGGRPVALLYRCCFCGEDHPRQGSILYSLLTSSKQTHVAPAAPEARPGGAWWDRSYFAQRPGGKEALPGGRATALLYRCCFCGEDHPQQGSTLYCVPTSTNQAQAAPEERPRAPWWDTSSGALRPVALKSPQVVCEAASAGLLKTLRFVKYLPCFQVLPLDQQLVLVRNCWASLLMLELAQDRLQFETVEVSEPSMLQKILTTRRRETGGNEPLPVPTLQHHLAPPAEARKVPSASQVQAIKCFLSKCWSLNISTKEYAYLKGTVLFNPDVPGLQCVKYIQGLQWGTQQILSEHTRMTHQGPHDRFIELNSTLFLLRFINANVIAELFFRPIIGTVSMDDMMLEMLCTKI

cells = format: functional, cell-based
[12] = molecular target: T7, Trace amine-associated receptor 1 (Homo sapiens, UniProt Q96RJ0); test: Counterscreen for agonists of the human trace amine associated receptor 1 (hTAAR1): Fluorescence-based cell-based high throughput dose response assay to identify hTAAR1 agonist that also desensitize TAAR1 receptor response.; format: functional
T7 sequence (Q96RJ0 whole entry): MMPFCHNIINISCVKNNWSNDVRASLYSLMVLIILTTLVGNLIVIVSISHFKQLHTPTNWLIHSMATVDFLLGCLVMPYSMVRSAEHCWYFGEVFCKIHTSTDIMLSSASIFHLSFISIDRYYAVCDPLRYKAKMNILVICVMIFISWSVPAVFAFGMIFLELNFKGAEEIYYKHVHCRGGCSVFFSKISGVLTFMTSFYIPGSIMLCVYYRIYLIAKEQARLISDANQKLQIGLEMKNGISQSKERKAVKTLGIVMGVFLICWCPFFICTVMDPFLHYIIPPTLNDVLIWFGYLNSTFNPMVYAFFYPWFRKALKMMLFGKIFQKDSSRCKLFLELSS

[13] = molecular target: T7, Trace amine-associated receptor 1; test: Fluorescence-based cell-based high throughput dose response assay to identify agonists of the human trace amine associated receptor 1 (TAAR1).; format: functional
[14] = molecular target: FAD-linked sulfhydryl oxidase ALR (Homo sapiens, UniProt P55789); test: inhibitors of human ALR sulfhydryl oxidase, dose response, biochemical, H2O2 detection, luminescence, cherry-pick (AID 493248)
Sequence of FAD-linked sulfhydryl oxidase ALR (P55789 whole entry): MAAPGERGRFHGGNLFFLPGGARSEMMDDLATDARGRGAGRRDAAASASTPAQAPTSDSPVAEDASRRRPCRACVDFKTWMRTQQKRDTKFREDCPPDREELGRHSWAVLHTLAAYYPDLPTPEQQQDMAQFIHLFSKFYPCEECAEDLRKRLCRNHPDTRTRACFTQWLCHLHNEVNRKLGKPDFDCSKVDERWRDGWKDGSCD

Compound: CCN1CCN(CCCNC(=O)c2ccc3c(c2)NC(=O)/C(=C\c2cccc(C)c2)S3)CC1
AC50 (INS1): 6.5 µM (active)
AC50 [1]: 4.17 µM (active)
AC50 [2]: 9.93 µM (active)
IC50 [3]: > 20 µM (inactive)
AC50 (A-375): 17.5 µM (active)

AC50 (Cytochrome P450 2C9): 5.01 µM (inconclusive)
AC50 (Cytochrome P450 3A4): inconclusive
AC50 (Cytochrome P450 2C19): 0.158 µM (inconclusive)
Compound: CCCC(=O)N1CCN(c2ccc(NC(=O)c3sc4ccccc4c3Cl)cc2)CC1

IC50 [4]: > 47.1 µM (inactive)
EC50 [5]: > 79.4 µM (inactive)
EC50 [6]: > 300 µM (not active)
EC50 [7]: > 79.4 µM (not active)
EC50 [8]: > 53 µM (inactive)
EC50 [9]: > 79.4 µM (not active)
EC50 [10]: > 300 µM (not active)
Compound: C=CCOc1ccc(C2C(C(=O)c3ccco3)=C(O)C(=O)N2c2nnc(C)s2)cc1 (configuration not stated)

Compound: CN1CCN(c2ccc(-c3cccc(NC(=O)COc4ccc(Cl)cc4)c3)nn2)CC1
IC50 [11]: > 67.5 µM (inactive)
IC50 (cells): > 67.5 µM (inactive)

EC50 [13]: 5.67 µM (active)
AC50 [14]: 0.398 µM (active)
Compound: Cn1c(=O)c2[nH]c(Nc3ccccc3)nc2n(C)c1=O
IC50 [12]: 9.39 µM (active)

Compound: Cc1ccnc(NC(=O)c2cccc(S(=O)(=O)N3CCOCC3)c2)c1
IC50 [11]: > 67.5 µM (inactive)
IC50 (cells): > 67.5 µM (inactive)
